# Legend:
# [1] = Stability in human liver microsomes; format: in vitro ADME
# RKO cells = assay: Clonogenic IC50, RKO; format: cell-based; conditions: Homo sapiens
# HCC827-AZR = assay: Clonogenic survival assay, HCC827-AZR; format: cell-based; conditions: read-out: IC50 and IC90
# Microsomal half-life = format: in vitro ADME; conditions: microsomes
# K-562 = assay: NCI 60 cell line screen, K-562; format: cell-based, human; conditions: Leukemia
# Method: (§1) The activity of Compound 8C was tested against 60 different human tumor cell lines at the National Cancer Institute, using the standard NCI 60 screening protocol.
# HT29 = assay: NCI 60 cell line screen, HT29; format: cell-based, human; conditions: Colon Cancer
# Method: as §1
# LOX IMVI = assay: NCI 60 cell line screen, LOX IMVI; format: cell-based, human; conditions: Melanoma
# Method: as §1
# M14 = assay: NCI 60 cell line screen, M14; format: cell-based, human; conditions: Melanoma
# Method: as §1
# MCF7 = assay: NCI 60 cell line screen, MCF7; format: cell-based, human; conditions: Breast Cancer
# Method: as §1
# HCT-116 = assay: NCI 60 cell line screen, HCT-116; format: cell-based, human; conditions: Colon Cancer
# Method: as §1
# Preliminary safety test = format: in vivo, C57BL6 mice; conditions: daily dose of 30 mg/kg for one week
# Method: A preliminary test on the safety of a daily dose of 30 mg/kg for one week was performed using C57BL6 mice. The overall health and weight of a group of 6 mice was monitored during treatment. A modest loss of 3.5±2.4% body weight after one week of treatment was observed, but mice fully recovered the weight 2-days after treatment cessation.
# MALME-3M = assay: NCI 60 cell line screen, MALME-3M; format: cell-based, human; conditions: Melanoma
# Method: as §1
# MCR5 cells = assay: Clonogenic IC50, MCR5; format: cell-based; conditions: MCR5, MCR5
# 786-0 = assay: NCI 60 cell line screen, 786-0; format: cell-based, human; conditions: Renal Cancer
# Method: as §1
# UM1 cells = assay: Clonogenic IC50, UM1; format: cell-based
# EGFR = assay: EGF-induced EGFR dimerization and EGFR degradation in PC9-AZR cells; format: cell-based; conditions: 1 μM, 1 hour, then EGF 30 ng/ml
# Method: It was determined if the response to Compound 8C correlates with inhibition of EGF-induced dimerization and degradation of EGFR. For this, PC9-AZR cells were treated for 1 hour with 1 μM Compound 8C and an additional 30 minutes with EGF (30 ng/ml) and 30 minutes with disuccinimidyl suberate (DSS, 150 μM) to cross-link interacting proteins. Lysates were prepared and immunoblotted with anti-EGFR antibodies.
# HCC-2998 = assay: NCI 60 cell line screen, HCC-2998; format: cell-based, human; conditions: Colon Cancer
# Method: as §1
# UMCC92 cells = assay: Clonogenic IC50, UMCC92; format: cell-based
# UACC-62 = assay: NCI 60 cell line screen, UACC-62; format: cell-based, human; conditions: Melanoma
# Method: as §1
# SK-MEL-28 = assay: NCI 60 cell line screen, SK-MEL-28; format: cell-based, human; conditions: Melanoma
# Method: as §1
# MDA-MB-231/ATCC = assay: NCI 60 cell line screen, MDA-MB-231/ATCC; format: cell-based, human; conditions: Breast Cancer
# Method: as §1
# [2] = target: T1, purified wild-type EGFR kinase domain (Homo sapiens, UniProt P00533); assay: Thermal stability assay of purified EGFR; format: binding; conditions: 10 μM
# T1 construct: WT-EGFR kinase domain (aa696-1022, active kinase); made in house; host or cells: SF9 insect cells
# Method: The samples were subjected to heat inactivation (20 to 44° C.) for 3 minutes. The soluble fraction was separated from aggregate by centrifugation at 13,000 RPM at 4° C. for 10 minutes. […] The EGFR band intensity as quantified by ImageJ software and plotted (see FIG. 5B). […] The soluble fraction of EGFR was quantified and plotted as described above (see FIG. 5C).
# After cooling, the samples were centrifuged, and the soluble protein fraction was collected and resolved using immunoblotting with anti-EGFR antibodies (see FIG. 6A).
# cells = assay: Cell Titer Blue % cell viable (24 hrs); format: cell-based; conditions: 24 h, Conc 3.75 μM
# Method in brief: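 Cell viability was measured with CellTiter-Blue® reagent according to the manufacturer's protocol. Cells were seeded at 10,000 per well in 96-well plates, in quadruplicate, and treated with compound one day later. Viable cells reduce the redox dye resazurin to fluorescent resorufin. Fluorescence was read at 590 nm emission after excitation at 560 nm and compared with vehicle-treated controls.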
# PC9-AZR = assay: Clonogenic survival assay, PC9-AZR; format: cell-based; conditions: read-out: IC50 and IC90
# HL-60(TB) = assay: NCI 60 cell line screen, HL-60(TB); format: cell-based, human; conditions: Leukemia
# Method: as §1
# [3] = system: Ba/F3-AZR cells (L858R+T790M+C797S-EGFR); assay: Osimertinib resistant Ba/F3-AZR ascites tumor model; format: in vivo, nude mice; conditions: single 30 mg/kg dose (Compound 8C i.p., osimertinib oral), 18 days after tumor cells
# purified EGFR = target: T2, purified EGFR (Homo sapiens, UniProt P00533); assay: Competition with Biotin-Disruptin for purified EGFR; format: binding; conditions: 15 minutes at 37° C.
# T2 construct: WT-EGFR kinase domain (aa696-1022, active kinase); made in house; host or cells: SF9 insect cells
# Method: To determine if Compound 8C competes for the same binding site on EGFR, Biotin-Disruptin-Avidin coupled beads were incubated with purified EGFR in the presence or absence of Compound 8C for 15 minutes at 37° C. The agarose beads were spun down, and the non-specific protein removed by washing in citrate buffer. The bound protein was released in Laemmli buffer and resolved by SDS page.
# [4] = system: PanIn (Pancreatic Intraepithelial Neoplasia); assay: Pancreatic tumor model (KC mice), PanIn; format: in vivo; conditions: oral gavage, 30 mg/kg body weight, daily
# Method: 6-week old KC mice were treated with Compound 8C via oral gavage (30 mg/kg body weight, daily).
# T1 sequence (P00533 696-1022): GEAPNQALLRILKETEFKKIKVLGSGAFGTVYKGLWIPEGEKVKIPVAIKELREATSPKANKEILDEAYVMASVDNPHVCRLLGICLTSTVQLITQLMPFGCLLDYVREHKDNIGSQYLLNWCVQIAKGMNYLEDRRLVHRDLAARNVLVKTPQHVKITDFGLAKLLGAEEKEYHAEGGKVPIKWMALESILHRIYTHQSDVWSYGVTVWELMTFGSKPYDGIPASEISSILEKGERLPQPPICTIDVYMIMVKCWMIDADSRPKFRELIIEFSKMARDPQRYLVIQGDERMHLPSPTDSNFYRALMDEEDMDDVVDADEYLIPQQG
# T2 sequence (P00533 696-1022): as above
compound,measurement,setting,value
"CN1CCC2(CC1)N=C(SCC(=O)Nc1cnc3ccccc3c1)C(c1ccc(Br)cc1)=N2 [Compound 8C, 2-((3-(4-bromophenyl)-8-methyl-1,4,8-triazaspiro[4.5]deca-1,3-dien-2-yl)thio)-N-(quinolin-3-yl)acetamide]",stability compared to pre lead (C95),[1],approximately 20 times
same,IC50,RKO cells,1.6 µM
same,IC50,HCC827-AZR,1500 to 4000 nM
same,half-life,Microsomal half-life,> 46 min
same,Percent Growth,K-562,−61.5%
same,Percent Growth,HT29,−67.1%
same,Percent Growth,LOX IMVI,−78.5%
same,Percent Growth,M14,−83.8%
same,Percent Growth,MCF7,−42.7%
same,Percent Growth,HCT-116,−90.7%
same,loss of body weight after one week of treatment,Preliminary safety test,3.5±2.4%
same,time to full weight recovery after treatment cessation,Preliminary safety test,2 days
same,Percent Growth,MALME-3M,−75.5%
same,IC50,MCR5 cells,18.6 µM
same,Percent Growth,786-0,−81.7%
same,IC50,UM1 cells,0.5 µM
same,EGFR dimerization and degradation of EGFR,EGFR,can inhibit EGFR dimerization and induce degradation of EGFR
same,Percent Growth,HCC-2998,−51.3%
same,IC50,UMCC92 cells,0.2 µM
same,Percent Growth,UACC-62,−78.9%
same,Percent Growth,SK-MEL-28,−70.1%
same,Percent Growth,MDA-MB-231/ATCC,−40.5%
same,effect on melting curve / melting temperature of purified WT-EGFR,[2],shifts the melting curve
same,viability at 3.75 µM,cells,68%
same,IC50,PC9-AZR,1500 to 4000 nM
same,Percent Growth,HL-60(TB),−40.7%
same,survival,[3],prolonged life
same,inhibition of Disruptin-EGFR binding,purified EGFR,Competitive inhibition
same,propensity for developing PanIn,[4],significantly reduced propensity
